Data from ChEMBL document CHEMBL3526078, “Pharmacokinetics and hepatic uptake of eltrombopag, a novel platelet-increasing agent” (Drug Metab Dispos, 2011).

Experiments:
Type in all cases: ADME, cell-based
Conditions in all cases: human, hek293/pdzk1; call rule not given here
[1] = target: T1, Solute carrier organic anion transporter family member 2B1 (Homo sapiens, UniProt O94956); experiment: Inhibition of OATP2B1-mediated [3H]estrone-3-sulfate uptake in human OATP2B1 expressing HEK293/PDZK1 cells by scintillation counting
T1 sequence (O94956 whole entry): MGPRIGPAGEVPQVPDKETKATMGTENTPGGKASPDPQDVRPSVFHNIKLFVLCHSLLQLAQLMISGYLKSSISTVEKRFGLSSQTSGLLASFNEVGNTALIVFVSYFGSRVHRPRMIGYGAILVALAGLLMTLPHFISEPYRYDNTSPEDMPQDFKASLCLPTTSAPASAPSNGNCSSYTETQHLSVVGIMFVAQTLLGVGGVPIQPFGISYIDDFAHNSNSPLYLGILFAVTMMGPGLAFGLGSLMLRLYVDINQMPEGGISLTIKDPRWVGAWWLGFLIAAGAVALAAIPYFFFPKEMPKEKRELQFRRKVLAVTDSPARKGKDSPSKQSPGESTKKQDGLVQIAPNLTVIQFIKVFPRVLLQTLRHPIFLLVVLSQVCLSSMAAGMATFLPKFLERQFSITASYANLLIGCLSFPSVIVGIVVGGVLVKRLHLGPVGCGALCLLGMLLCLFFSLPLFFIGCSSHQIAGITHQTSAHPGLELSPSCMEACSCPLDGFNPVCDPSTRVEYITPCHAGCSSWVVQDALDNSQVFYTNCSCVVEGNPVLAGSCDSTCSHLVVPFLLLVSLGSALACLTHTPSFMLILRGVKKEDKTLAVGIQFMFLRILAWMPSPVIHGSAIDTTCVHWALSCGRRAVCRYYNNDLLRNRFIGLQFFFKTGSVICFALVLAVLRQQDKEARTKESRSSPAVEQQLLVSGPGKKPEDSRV

[2] = target: T2, Solute carrier organic anion transporter family member 1B1 (Homo sapiens, UniProt Q9Y6L6); experiment: Inhibition of OATP1B1-mediated [3H]estrone-3-sulfate uptake in human OATP1B1 expressing HEK293/PDZK1 cells by scintillation counting
T2 sequence (Q9Y6L6 whole entry): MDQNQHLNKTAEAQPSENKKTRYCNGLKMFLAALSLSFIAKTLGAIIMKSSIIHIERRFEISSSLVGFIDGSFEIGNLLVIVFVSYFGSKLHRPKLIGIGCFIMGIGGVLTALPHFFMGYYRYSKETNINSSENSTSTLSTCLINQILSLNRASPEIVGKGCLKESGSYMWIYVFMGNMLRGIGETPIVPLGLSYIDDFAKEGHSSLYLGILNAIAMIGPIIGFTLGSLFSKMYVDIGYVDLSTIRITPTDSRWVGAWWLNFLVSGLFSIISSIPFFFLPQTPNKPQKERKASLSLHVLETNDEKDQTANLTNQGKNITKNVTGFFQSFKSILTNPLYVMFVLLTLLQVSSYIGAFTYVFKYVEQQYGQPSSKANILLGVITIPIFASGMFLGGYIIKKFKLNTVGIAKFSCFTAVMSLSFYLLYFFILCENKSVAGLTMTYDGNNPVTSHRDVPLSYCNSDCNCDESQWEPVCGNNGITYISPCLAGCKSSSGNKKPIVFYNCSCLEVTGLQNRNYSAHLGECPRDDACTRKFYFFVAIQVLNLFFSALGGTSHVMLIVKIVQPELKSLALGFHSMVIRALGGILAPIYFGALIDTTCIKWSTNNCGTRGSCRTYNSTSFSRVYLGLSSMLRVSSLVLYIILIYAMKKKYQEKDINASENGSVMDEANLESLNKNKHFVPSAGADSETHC

[3] = target: T3, Solute carrier organic anion transporter family member 1B3 (Homo sapiens, UniProt Q9NPD5); experiment: Inhibition of OATP1B3-mediated [3H]estradiol 17beta-glucuronide uptake in human OATP1B3 expressing HEK293/PDZK1 cells by scintillation counting
T3 sequence (Q9NPD5 whole entry): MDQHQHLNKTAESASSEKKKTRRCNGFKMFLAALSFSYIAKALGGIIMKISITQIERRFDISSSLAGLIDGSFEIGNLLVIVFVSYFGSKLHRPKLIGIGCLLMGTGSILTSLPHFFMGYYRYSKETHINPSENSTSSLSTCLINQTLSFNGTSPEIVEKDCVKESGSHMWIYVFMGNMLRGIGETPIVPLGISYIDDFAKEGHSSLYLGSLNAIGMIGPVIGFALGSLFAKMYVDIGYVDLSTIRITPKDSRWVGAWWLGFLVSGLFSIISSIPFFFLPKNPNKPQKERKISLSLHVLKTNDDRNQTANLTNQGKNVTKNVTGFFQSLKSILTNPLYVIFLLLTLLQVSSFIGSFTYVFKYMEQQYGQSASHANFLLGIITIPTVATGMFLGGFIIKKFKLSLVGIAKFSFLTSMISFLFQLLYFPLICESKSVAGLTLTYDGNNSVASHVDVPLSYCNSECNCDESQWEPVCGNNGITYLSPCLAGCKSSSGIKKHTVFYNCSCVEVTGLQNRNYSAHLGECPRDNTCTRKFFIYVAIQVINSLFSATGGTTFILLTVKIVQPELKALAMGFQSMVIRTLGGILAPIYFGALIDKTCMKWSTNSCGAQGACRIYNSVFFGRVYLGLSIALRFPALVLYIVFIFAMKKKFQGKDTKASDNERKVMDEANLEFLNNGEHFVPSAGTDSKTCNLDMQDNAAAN

[4] = target: T4, Solute carrier family 22 member 1 (Homo sapiens, UniProt O15245); experiment: Inhibition of OCT1-mediated [14C]tetraethylammonium uptake in human OCT1 expressing HEK293/PDZK1 cells by scintillation counting
T4 sequence (O15245 whole entry): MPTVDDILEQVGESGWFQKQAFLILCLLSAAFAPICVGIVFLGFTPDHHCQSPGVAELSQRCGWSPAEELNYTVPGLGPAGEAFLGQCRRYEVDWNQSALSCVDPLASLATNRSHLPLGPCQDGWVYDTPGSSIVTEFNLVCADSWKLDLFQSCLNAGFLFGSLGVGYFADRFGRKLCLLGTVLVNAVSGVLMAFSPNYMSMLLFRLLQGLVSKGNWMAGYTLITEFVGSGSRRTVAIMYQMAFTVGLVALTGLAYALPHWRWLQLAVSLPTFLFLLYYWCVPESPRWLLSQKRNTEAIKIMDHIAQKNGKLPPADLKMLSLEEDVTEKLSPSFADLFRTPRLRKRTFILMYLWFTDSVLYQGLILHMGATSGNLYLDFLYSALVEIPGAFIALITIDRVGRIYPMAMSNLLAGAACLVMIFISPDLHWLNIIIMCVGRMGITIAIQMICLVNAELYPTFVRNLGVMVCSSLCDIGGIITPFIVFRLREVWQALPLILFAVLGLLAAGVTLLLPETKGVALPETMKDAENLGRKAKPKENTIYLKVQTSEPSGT

Row | inhibition (INH) [4] | Structure (SMILES) | inhibition (INH) [1] | inhibition (INH) [2] | inhibition (INH) [3]
1 | – | O=C1OC(c2ccc(O)c(S(=O)(=O)O)c2)(c2ccc(O)c(S(=O)(=O)O)c2)c2c(Br)c(Br)c(Br)c(Br)c21 [SULFOBROMOPHTHALEIN] | Active | Active | Active
2 | Active | CC[N+](CC)(CC)CC [TETRYLAMMONIUM] | – | – | –
